# Data: patent US20110060037A1, “USE OF NPY Y5 RECEPTOR ANTAGONISTS FOR THE PREVENTION OF PSYCHO-STIMULANT AND OPIOID ABUSE” (priority 2008, published 2011)
# Entries after “also recorded” stand apart in the source; their conditions may differ.
# Assays:
# [1] = system: NMRI mice; assay: Acute self-administration: cocaine reinforcement; format: in vivo; conditions: for nose-poking when saline was the i.v.-reinforcer (per se effect): L-152,804 10 mg/kg p.o. vs vehicle p.o.
# [2] = system: NMRI mice; assay: Acute self-administration: food reinforcement; format: in vivo; conditions: L-152,804 10 mg/kg p.o. two hours before; fasted overnight; P=0.573 vs. vehicle pre-treated ensure; FIG. 3
# Description: The self-administration apparatus used was described above. The end of the PVC tubing, mentioned above, was secured on the outside of the self-administration box at the top of the nose-poke hole, thereby enabling the mice to reach the end of the PVC tube to acquire the content used as reinforcer (ensure protein drink, Abbott Laboratories, USA). The animals fasted overnight, with water still available.
# Male NMRI mice received p.o. administration of L-152,804 (10 mg/kg) or corresponding vehicle. Two hours later, the animals were subjected to the self-administration procedure described above with access to PVC tubing containing ensure (nvehicle=11, nL-152,804=13) or without any drink content (=control, n=16).
# Data were analyzed using SPSS (SPSS Inc, USA). In the self-administration experiments, two animals from the L-152,804 experiment were excluded. […] In the first and third self-administration experiments, data were analyzed using one-way analysis of variance (ANOVA) followed by post-hoc LSD t-test. […] Subsequently, after significant treatment effect of cocaine, data were analyzed using one-way ANOVA followed by post-hoc LSD t-tests. […]
# [3] = system: C57Bl/6 mice; assay: Cocaine-induced conditioned place preference (CPP); format: in vivo
# Excerpt: The CPP apparatus consisted of eight parallel set-ups, each consisting of two separate compartments measuring 19×19×19 cm. The walls extended upwards with clear Plexiglas plates to a total height of 43 cm, having the function of preventing the mice from jumping out, and at the same time allowing light to enter. The two compartments differed in visual as well as tactile cues. In one compartment, the walls and floor were painted white, and the floor was smooth, whereas in the other compartment, the walls were black, and the floor provided texture by insertion of a grey Lego plate. During habituation, post-conditioning test, extinction, and reinstatement, the mice were free to move between the two compartments through a square hole (3.5×3.5 cm). During conditioning, this opening was closed by insertion of a wooden plate. The movements of the animals were measured with the video-tracking program EthoVision (Noldus, Netherlands).
# The CPP procedure consisted of the following consecutive phases: Habituation (2 days), conditioning (8 days), post-conditioning test (1 day), extinction (3 days), reinstatement test (1 day). Habituation (days 1-2): Each day the mice were placed into the white compartment of the CPP boxes with the door open and allowed to explore the compartments for 20 minutes to become habituated to the CPP apparatus. On the second day (i.e., the pre-conditioning test), the time spent in each of the two compartments (black or white) was recorded. This determined the preferred compartment of each mouse. No injections were given during these sessions.
# Conditioning (days 3-10): Before eight daily 30 minutes conditioning sessions the animals received i.p. injections of either drug or isotonic saline, and the door between the two compartments was closed. Drug groups received drug injections on drug-days and were placed 2-5 min. later in their non-preferred compartment. On non drug-days, these animals received vehicle injections and were subsequently placed in their preferred compartment. All control animals received injections with vehicle each day and were placed in alternating compartments (black/white) on alternating days. […]
# Post-conditioning test (day 11): The test was conducted on the day after the last conditioning session. Mice were allowed free access to both compartments for 20 minutes during which the amount of time spent in each compartment was recorded as described above for the pre-conditioning test. […]
# Extinction and reinstatement: During an extinction period of three days the animals were exposed to the apparatus as during the post-conditioning test for 20 minutes each day with open doors and without prior injection. […] Subsequently, the time spent in the previously drug-paired (non-preferred) compartment was recorded for 20 min. […]
# [4] = system: NMRI mice; assay: Cocaine-induced hyperactivity; format: in vivo
# Excerpt: The apparatus for measuring locomotor hyperactivity consisted of 16 activity Plexiglas boxes (37×21×17 cm). Eight dual photocells placed throughout the length of each box, detected movement of the animals. A plate was placed on top of the box in order to keep the mice from jumping out during the sessions. Sawdust was placed in a thin layer on the floor of the box. All activity boxes were connected to an interface (SG 502, Med. Associates Inc., East Fairfield, Vt., USA), measuring each beam-break. A computer and activity software (Ellegaard Systems, DK) were used to record the results from each activity box.
# In all activity experiments an i.p. injection of either vehicle or drug was administered 3-7 minutes before testing. The animal was then placed in an activity box and the activity was measured for 30 minutes. […]
# Conditioned place preference data were analysed using repeated measure one-way ANOVA between days within each group on all four groups of both experiments. […] Post-conditioning test and reinstatement presented as percent of its own saline group were analysed with a one-way ANOVA followed by post-hoc LSD t-tests. Total crossings were analysed with a one-way ANOVA followed by post-hoc LSD t-tests. Data presented as 5 minutes intervals was analysed using repeated measures ANOVA with treatment as between subjects factor followed by LSD post-hoc t-test. […]
# [5] = target: T1, Y5 receptor (Mus musculus, UniProt O70342); conditions: cited from earlier work
# T1 construct: close to 80% Y5 receptor occupancy in the mouse brain has also been observed between one and four hours after oral administration; host or cells: mouse brain (in vivo, after oral dosing)
# T1 sequence (O70342 1-466): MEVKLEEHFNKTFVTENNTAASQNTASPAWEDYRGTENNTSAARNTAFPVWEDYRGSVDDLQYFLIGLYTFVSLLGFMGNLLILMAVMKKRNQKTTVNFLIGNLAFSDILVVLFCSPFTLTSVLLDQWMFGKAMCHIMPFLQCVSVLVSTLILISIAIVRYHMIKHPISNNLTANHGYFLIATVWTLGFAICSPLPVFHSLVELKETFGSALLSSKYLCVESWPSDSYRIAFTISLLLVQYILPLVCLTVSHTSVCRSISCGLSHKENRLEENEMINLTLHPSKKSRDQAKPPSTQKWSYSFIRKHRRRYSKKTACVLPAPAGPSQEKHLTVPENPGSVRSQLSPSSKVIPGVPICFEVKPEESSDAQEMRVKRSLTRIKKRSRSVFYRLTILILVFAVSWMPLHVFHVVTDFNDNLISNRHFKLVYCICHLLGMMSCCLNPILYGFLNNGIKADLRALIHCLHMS
# [6] = 2 hrs after oral administration, 10 mg/kg; cited from earlier work
# [7] = system: rats; conditions: rats treated with L-152,804; cited from earlier work
# [8] = system: Y5-KO and WT mice; assay: Acute self-administration of cocaine in Y5-KO and WT mice; format: in vivo; conditions: inverted U-shaped curve, FIG. 4
smiles,measurement,setting,value
"CC1(C)CC(=O)C(C2C3=C(CC(C)(C)CC3=O)Oc3ccccc32)C(=O)C1 [L-152,804, 5,5-Dimethyl-2-(2,3,4,9-tetrahydro-3,3-dimethyl-1oxo-1H-xanthen-9-yl)-1,3-cyclohexanedione]",nose-poking when saline was the i.v.-reinforcer (per se effect),[1],no effect; also recorded: did not significantly decrease
same,nose-poking when saline was the i.v.-reinforcer (per se effect),"[1]; listed as L-152,802",No per se effect
same,"self-administration of cocaine (nose-poking), significance of decrease","[1]; L-152,804 10 mg/kg p.o., cocaine 0.03 mg/kg/infusion, P=0.004",reaching significance
same,"cocaine self-administration vs. saline i.v. in L-152,804-pretreated mice","[1]; L-152,804 10 mg/kg p.o., cocaine 0.01-1.0 mg/kg/infusion, post-hoc LSD t-tests",no significant doses vs. saline; also recorded: did not self-administer cocaine at a significantly higher rate
same,downward shift of the cocaine dose-response curve (efficacy of cocaine),"[1]; L-152,804 10 mg/kg p.o., vertex of fitted parabola, likelihood ratio test P<0.001",shifted down; also recorded: shifted significantly downward
same,shift of the cocaine dose-response curve to the right or left (potency of cocaine),"[1]; L-152,804 10 mg/kg p.o., vertex of fitted parabola, likelihood ratio test P=0.25",neither shifted significantly to the right nor to the left; also recorded: showed a tendency toward a rightward shift
same,"self-administration of cocaine (nose-poking), significance of decrease","[1]; L-152,804 30 mg/kg p.o., cocaine 0.03 mg/kg/infusion, P=0.002",reaching significance
same,self-administration of cocaine (nose-poking),"[1]; cocaine 0.03 mg/kg/infusion i.v., L-152,804 3, 10 or 30 mg/kg p.o. two hours before, FIG. 1",significantly and dose-dependently decreased
same,nose-poking frequency of i.v.-administered cocaine at the other self-administered cocaine dose,"[1]; second experiment, L-152,804 10 mg/kg p.o., cocaine 0.01 mg/kg/infusion as printed",showed a similar trend
same,nose-poking frequency of i.v.-administered cocaine at the peak dose of cocaine,"[1]; second experiment, L-152,804 10 mg/kg p.o., cocaine 0.03 mg/kg/infusion, P=0.006, FIG. 2",significantly reduced
same,food (ensure protein drink) self-administration,[2],had no effect; also recorded: did not alter
same,induction of cocaine place preference (post-conditioning vs. pre-conditioning test),"[3]; L-152,804 3, 10, 30 mg/kg p.o. two hours prior to cocaine 10 mg/kg i.p. conditioning, FIG. 5A",did not attenuate; also recorded: caused significant place preference similar to that observed without the Y5-antagonist
same,reinstatement of cocaine-induced place preference vs. own pre-conditioning test,"[3]; L-152,804 3, 10, 30 mg/kg p.o., cocaine priming 5 mg/kg, FIG. 5A",absent; also recorded: prevented significant reinstatement
same,reinstatement as percent of the vehicle p.o./saline i.p. group,"[3]; L-152,804 3, 10, 30 mg/kg p.o., cocaine priming 5 mg/kg, FIG. 5B","dose-dependently attenuated; also recorded: only the highest dose of L-152,804 (30 mg/kg) blocked reinstatement"
same,extinction of cocaine place preference,"[3]; L-152,804 3, 10, 30 mg/kg p.o., three extinction days, vehicle/cocaine group reached full extinction on day 3",significantly faster; also recorded: full extinction already on the first extinction day
same,"cocaine-induced hyperactivity (locomotor activity, beam crossings)","[4]; L-152,804 10 mg/kg p.o. two hours prior to cocaine 10 mg/kg, 30 min observation and 5-min intervals, FIG. 7",appeared to be attenuated; also recorded: prevented a significant cocaine-induced increase in locomotor activity
same,locomotor activity in saline i.p.-treated animals,"[4]; L-152,804 10 mg/kg p.o. vs vehicle",No effect
same,Y5 receptor occupancy in mouse brain,"[5]; 2 h after oral administration of L-152,804",80%
same,Y5 receptor occupancy in the mouse brain,"[5]; between one and four hours after oral administration of L-152,804",~80%
same,"amount of L-152,804 in the rat brain",[6],significant amount
same,distance travelled,[7],no change in distance travelled
COC(=O)[C@H]1[C@@H](OC(=O)c2ccccc2)C[C@@H]2CC[C@H]1N2C [cocaine],cocaine dose at which self-administration reaches maximum,"[1]; vehicle p.o. pre-treated NMRI mice, inverted U-shaped curve",0.03 mg/kg/infusion
same,cocaine dose at which self-administration reaches maximum,[8],0.03 mg/kg/infusion
